Test results: ChEMBL document CHEMBL1138200, “Dihydropyrrolopyrazole transforming growth factor-beta type I receptor kinase domain inhibitors: a novel benzimidazole series with selectivity versus transforming growth factor-beta type II receptor kinase and mixed lineage kinase-7” (J Med Chem, 2006)

Legend:
TGF-beta receptor type-1 [1] = target: T1, TGF-beta receptor type-1 (Homo sapiens, UniProt P36897); experiment: Inhibition of recombinant human TGFbeta R1 expressed in Sf9 cells
T1 sequence (P36897 whole entry): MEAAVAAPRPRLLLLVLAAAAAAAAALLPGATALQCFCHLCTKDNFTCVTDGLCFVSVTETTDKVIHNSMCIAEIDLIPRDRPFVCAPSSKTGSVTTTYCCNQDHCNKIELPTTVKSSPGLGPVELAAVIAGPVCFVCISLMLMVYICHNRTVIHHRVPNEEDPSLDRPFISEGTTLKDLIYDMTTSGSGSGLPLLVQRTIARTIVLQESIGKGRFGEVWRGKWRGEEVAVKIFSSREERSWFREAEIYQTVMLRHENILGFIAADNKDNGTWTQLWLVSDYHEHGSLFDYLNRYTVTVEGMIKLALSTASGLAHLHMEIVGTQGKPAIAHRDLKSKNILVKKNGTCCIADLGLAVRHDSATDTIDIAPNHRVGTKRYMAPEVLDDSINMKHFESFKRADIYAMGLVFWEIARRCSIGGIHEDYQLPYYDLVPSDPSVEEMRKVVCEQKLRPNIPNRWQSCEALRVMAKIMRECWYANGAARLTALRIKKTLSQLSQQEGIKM

TGF-beta receptor type-2 = TGF-beta receptor type-2 (Homo sapiens, UniProt P37173); experiment: Inhibition of recombinant human TGFbeta R2 expressed in Sf9 cells
[2] = target: Mitogen-activated protein kinase kinase kinase 20 (Homo sapiens, UniProt Q9NYL2); experiment: Inhibition of MLK7
TGF-beta receptor type-1 [3] = target: T1, TGF-beta receptor type-1; experiment: Inhibition of TGFbeta R1 induced transcriptional activation of p3TP-Lux in mink Mv1Lu lung cells; format: functional, cell-based, Mustela
[4] = Inhibitory activity against TGF-beta-stimulated proliferation in NIH3T3 cells; format: functional, cell-based; details: Mus musculus
Cytochrome P450 2D6 = Cytochrome P450 2D6 (Homo sapiens, UniProt P10635); experiment: Inhibition of cytochrome P450 2D6; format: ADME
Cytochrome P450 2D6, sequence (P10635 whole entry): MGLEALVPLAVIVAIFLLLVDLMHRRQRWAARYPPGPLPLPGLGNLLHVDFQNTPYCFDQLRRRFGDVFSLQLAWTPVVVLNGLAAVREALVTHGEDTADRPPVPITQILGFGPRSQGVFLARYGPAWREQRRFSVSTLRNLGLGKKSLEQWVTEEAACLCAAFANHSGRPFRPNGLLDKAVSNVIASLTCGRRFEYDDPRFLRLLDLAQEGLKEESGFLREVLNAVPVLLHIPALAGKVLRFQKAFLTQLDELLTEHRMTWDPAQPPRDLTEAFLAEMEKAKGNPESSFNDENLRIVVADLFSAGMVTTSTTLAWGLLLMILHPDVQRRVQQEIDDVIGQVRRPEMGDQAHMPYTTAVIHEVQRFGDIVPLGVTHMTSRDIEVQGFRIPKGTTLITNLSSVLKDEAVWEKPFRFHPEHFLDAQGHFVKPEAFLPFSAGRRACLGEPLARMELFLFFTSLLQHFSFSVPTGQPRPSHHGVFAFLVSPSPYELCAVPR

TGF-beta receptor type-2, sequence (P37173 whole entry): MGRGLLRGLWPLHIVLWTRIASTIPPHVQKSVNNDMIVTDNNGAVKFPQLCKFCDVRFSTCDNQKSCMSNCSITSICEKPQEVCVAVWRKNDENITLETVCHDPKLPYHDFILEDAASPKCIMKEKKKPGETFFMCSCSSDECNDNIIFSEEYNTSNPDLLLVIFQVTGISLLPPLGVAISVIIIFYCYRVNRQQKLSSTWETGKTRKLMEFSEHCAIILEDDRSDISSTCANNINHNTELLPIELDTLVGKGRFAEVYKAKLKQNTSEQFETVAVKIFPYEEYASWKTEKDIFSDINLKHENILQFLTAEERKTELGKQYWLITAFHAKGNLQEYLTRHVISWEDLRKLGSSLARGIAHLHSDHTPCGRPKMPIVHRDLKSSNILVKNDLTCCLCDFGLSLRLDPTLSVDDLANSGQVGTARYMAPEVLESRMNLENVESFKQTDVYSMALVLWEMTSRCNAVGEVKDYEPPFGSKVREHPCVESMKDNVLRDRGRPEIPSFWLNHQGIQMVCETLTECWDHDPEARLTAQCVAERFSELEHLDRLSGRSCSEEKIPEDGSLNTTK
Mitogen-activated protein kinase kinase kinase 20, sequence (Q9NYL2 whole entry): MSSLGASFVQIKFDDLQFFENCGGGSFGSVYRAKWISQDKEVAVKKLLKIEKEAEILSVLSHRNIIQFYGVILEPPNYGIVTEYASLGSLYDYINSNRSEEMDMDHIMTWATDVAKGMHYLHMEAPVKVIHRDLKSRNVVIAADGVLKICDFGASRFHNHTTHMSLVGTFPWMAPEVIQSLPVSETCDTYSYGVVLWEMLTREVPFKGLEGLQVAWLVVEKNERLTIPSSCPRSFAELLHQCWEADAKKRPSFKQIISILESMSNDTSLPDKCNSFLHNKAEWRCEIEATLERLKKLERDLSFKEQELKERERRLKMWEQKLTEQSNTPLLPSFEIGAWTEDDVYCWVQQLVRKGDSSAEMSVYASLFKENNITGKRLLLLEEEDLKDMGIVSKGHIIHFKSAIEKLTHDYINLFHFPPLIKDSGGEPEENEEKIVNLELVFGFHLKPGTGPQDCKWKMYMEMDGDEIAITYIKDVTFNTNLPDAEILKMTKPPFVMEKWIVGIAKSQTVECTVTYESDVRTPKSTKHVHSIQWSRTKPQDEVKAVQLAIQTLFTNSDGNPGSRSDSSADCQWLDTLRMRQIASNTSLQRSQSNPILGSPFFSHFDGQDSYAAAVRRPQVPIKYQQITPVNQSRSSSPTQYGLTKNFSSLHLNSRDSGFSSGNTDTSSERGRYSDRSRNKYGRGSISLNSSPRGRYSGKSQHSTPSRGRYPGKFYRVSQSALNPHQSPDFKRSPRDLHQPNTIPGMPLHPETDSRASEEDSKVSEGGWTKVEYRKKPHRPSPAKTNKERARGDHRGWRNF

| SMILES | IC50 (TGF-beta receptor type-1 [1]) | IC50 (TGF-beta receptor type-2) | IC50 [2] | IC50 (TGF-beta receptor type-1 [3]) | IC50 [4] | IC50 (Cytochrome P450 2D6) |
| --- | --- | --- | --- | --- | --- | --- |
| Cc1cccc(-c2nn3c(c2-c2ccc4c(c2)ncn4CCCOC2CCCCO2)CCC3)n1 (stereo not drawn) | 1830 nM | 14500 nM | > 20000 nM | 2430 nM | – | – |
| CN(C)CCCn1cnc2ccc(-c3c(-c4ccccn4)nn4c3CCC4)cc21 | 398 nM | > 20000 nM | 15900 nM | 104 nM | 1000 nM | – |
| Cn1cnc2cc(-c3c(-c4ccccn4)nn4c3CCC4)ccc21 | 4740 nM | 19600 nM | > 20000 nM | 1370 nM | 1620 nM | – |
| OCCCn1cnc2ccc(-c3c(-c4ccccn4)nn4c3CCC4)cc21 | 79 nM | 352 nM | 708 nM | 79 nM | 371 nM | – |
| CCN(CC)CCCn1cnc2ccc(-c3c(-c4cccc(C)n4)nn4c3CCC4)cc21 | 122 nM | > 20000 nM | > 20000 nM | 100 nM | 274 nM | – |
| c1ccc(-c2nn3c(c2-c2ccc4[nH]ccc4c2)CCC3)nc1 | > 20000 nM | > 20000 nM | > 20000 nM | – | – | – |
| Cc1cccc(-c2nn3c(c2-c2ccc4ncn(CCCO)c4c2)CCC3)n1 | 41 nM | 690 nM | 2810 nM | 78 nM | 371 nM | – |
| c1ccc(-c2nn3c(c2-c2ccc4[nH]cnc4c2)CCC3)nc1 | – | 8730 nM | – | – | – | – |
| c1ccc(-c2nn3c(c2-c2ccc4c(c2)ncn4CCCOC2CCCCO2)CCC3)nc1 (stereo not drawn) | 6580 nM | > 20000 nM | > 20000 nM | 5890 nM | 4700 nM | – |
| Cn1cnc2ccc(-c3c(-c4ccccn4)nn4c3CCC4)cc21 | 75 nM | 395 nM | 1310 nM | 8 nM | 32 nM | – |
| Cc1cccc(-c2nn3c(c2-c2ccc4ncn(C)c4c2)CCC3)n1 | 22 nM | 668 nM | 2340 nM | 29 nM | 96 nM | – |
| Cc1cccc(-c2nn3c(c2-c2ccc4ncn(CCCN5CCCC5)c4c2)CCC3)n1 | 74 nM | > 20000 nM | > 20000 nM | 117 nM | 249 nM | – |
| c1ccc(-c2n[nH]cc2-c2ccnc3ccccc23)nc1 | – | 400 nM | 1400 nM | – | 81 nM | – |
| Cc1cccc(-c2nn3c(c2-c2ccc4ncn(CCCN5CCCCC5)c4c2)CCC3)n1 | 155 nM | > 20000 nM | > 20000 nM | 51 nM | 150 nM | – |
| Cc1cccc(-c2nn3c(c2-c2ccc4c(ccn4C)c2)CCC3)n1 | 4100 nM | > 20000 nM | > 20000 nM | – | – | – |
| c1ccc(-c2nn3c(c2-c2ccc4ncn(CCCN5CCCC5)c4c2)CCC3)nc1 | 246 nM | 10800 nM | 4880 nM | 226 nM | 854 nM | – |
| Cc1cccc(-c2nn3c(c2-c2ccc4ncn(CCCN5CCOCC5)c4c2)CCC3)n1 | 69 nM | 19800 nM | 8480 nM | 186 nM | 277 nM | – |
| Cc1cccc(-c2nn3c(c2-c2ccc4nc[nH]c4c2)CCC3)n1 | 47 nM | 1300 nM | 15900 nM | 15 nM | 42 nM | 27000 nM |
| Cn1ccc2cc(-c3c(-c4ccccn4)nn4c3CCC4)ccc21 | 12200 nM | > 20000 nM | 16600 nM | – | – | – |
| Cc1cccc(-c2nn3c(c2-c2ccc4ncn(CCCN(C)C)c4c2)CCC3)n1 | 85 nM | > 20000 nM | > 20000 nM | 53 nM | 139 nM | – |
